Measured values taken from US20090325952A1, “PYRAZOLO[3,4-B]PYRIDINE COMPOUNDS, AND THEIR USE AS PDE4 INHIBITORS” (Glaxo Group Limited, priority 2006, published 2009).
Counter-ions that a name gives are not always drawn.

Target: T1, PDE4B (human recombinant) (Homo sapiens, UniProt Q07343)
T1 construct: made in house; host or cells: Saccharomyces cerevisiae strain GL62 (PDE-deficient yeast)
Assay: Inhibition of PDE4B activity (FP and/or SPA assay)
Type: biochemical
Conditions: generally FP assay; one reading or average of n readings; read-out: PDE4B pIC50 (generally in FP assay) (±about 0.5) (converted)
From the text: Human recombinant PDE4B, in particular the 2B splice variant thereof (HSPDE4B2B), is disclosed in WO 94/20079 and also M. M. McLaughlin et al., “A low Km, rolipram-sensitive, cAMP-specific phosphodiesterase from human brain: cloning and expression of cDNA, biochemical characterisation of recombinant protein, and tissue distribution of mRNA”, J. Biol. Chem., 1993, 268, 6470-6476. For example, in Example 1 of WO 94/20079, human recombinant PDE4B is described as being expressed in the PDE-deficient yeast Saccharomyces cerevisiae strain GL62, e.g. after induction by addition of 150 uM CuSO4, and 100,000×g supernatant fractions of yeast cell lysates are described for use in the harvesting of PDE4B enzyme.
The ability of compounds to inhibit catalytic activity at PDE4B or 4D (human recombinant), PDE3 (from bovine aorta), PDE5 (human recombinant) or PDE6 (from bovine retina) can optionally be determined by Scintillation Proximity Assay (SPA) in a 96-well format.
Test compounds (as a solution in DMSO, suitably about 2 microlitre (ul) volume of DMSO solution) are preincubated at ambient temperature (room temperature, e.g. 19-23° C.) in Wallac Isoplates (code 1450-514) with PDE enzyme in 50 mM Tris-HCl buffer pH 7.5, 8.3 mM MgCl2, 1.7 mM EGTA, 0.05% (w/v) bovine serum albumin for 10-30 minutes (usually 30 minutes). The enzyme concentration is adjusted so that no more than 20% hydrolysis of the substrate defined below occurs in control wells without compound, during the incubation. For the PDE3, PDE4B and PDE4D assays, [5′,8-^3H]Adenosine 3′,5′-cyclic phosphate (Amersham Pharmacia Biotech, code TRK.559; or Amersham Biosciences UK Ltd, Pollards Wood, Chalfont St Giles, Buckinghamshire HP8 4SP, UK) is added to give 0.05uCi per well and about 10 nM final concentration. For the PDE5 and PDE6 assays, [8^−3H]Guanosine 3′,5′-cyclic phosphate (Amersham Pharmacia Biotech, code TRK.392) is added to give 0.05uCi per well and about 36 nM final concentration. Plates containing assay mixture, suitably approx. 100 ul volume of assay mixture, are mixed on an orbital shaker for 5 minutes and incubated at ambient temperature for 1 hour. Phosphodiesterase SPA beads (Amersham Pharmacia Biotech, code RPNQ 0150) are added (about 1 mg per well) to terminate the assay. Plates are sealed and shaken and allowed to stand at ambient temperature for 35 minutes to 1 hour (suitably 35 minutes) to allow the beads to settle. Bound radioactive product is measured using a WALLAC TRILUX 1450 Microbeta scintillation counter. For inhibition curves, 10 concentrations (e.g. 1.5 nM-30 uM) of each compound are assayed. Curves are analysed using ActivityBase and XLfit (ID Business Solutions Limited, 2 Ocean Court, Surrey Research Park, Guildford, Surrey GU2 7QB, United Kingdom) Results are expressed as pIC50 values.
The ability of compounds to inhibit catalytic activity at PDE4B (human recombinant) or PDE4D (human recombinant) can optionally be determined by IMAP Fluorescence Polarisation (FP) assay (IMAP Explorer kit, available from Molecular Devices Corporation, Sunnydale, Calif., USA; Molecular Devices code: R8062) in 384-well format.
The IMAP FP assay is able to measure PDE activity in an homogenous, non-radioactive assay format. The FP assay uses the ability of immobilised trivalent metal cations, coated onto nanoparticles (tiny beads), to bind the phosphate group of Fl-AMP that is produced on the hydrolysis of fluorescein-labelled (Fl) cyclic adenosine mono-phosphate (Fl-cAMP) to the non-cyclic Fl-AMP form. […] Binding of Fl-AMP product to the beads (coated with the immobilised trivalent cations) slows the rotation of the bound Fl-AMP and leads to an increase in the fluorescence polarisation ratio of parallel to perpendicular light. Inhibition of the PDE reduces/inhibits this signal increase. […]

T1 sequence (Q07343 1-564 isoform Q07343-2): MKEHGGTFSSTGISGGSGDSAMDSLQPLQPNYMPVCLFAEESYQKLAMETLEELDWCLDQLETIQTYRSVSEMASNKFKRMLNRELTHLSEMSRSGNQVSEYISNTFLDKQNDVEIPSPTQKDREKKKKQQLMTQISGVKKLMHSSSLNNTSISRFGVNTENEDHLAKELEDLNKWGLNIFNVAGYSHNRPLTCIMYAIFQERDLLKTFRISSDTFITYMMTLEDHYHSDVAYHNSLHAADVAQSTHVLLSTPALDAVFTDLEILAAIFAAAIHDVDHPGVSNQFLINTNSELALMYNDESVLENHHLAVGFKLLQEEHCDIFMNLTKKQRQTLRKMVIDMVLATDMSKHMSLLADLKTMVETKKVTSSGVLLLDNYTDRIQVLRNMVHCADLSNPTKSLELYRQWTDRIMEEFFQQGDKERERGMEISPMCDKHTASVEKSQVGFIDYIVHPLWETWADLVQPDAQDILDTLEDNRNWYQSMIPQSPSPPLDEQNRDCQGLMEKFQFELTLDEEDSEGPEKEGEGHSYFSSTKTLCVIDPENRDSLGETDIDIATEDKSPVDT

SMILES | IC50 [nM]
CCn1ncc2c(NC3CCOCC3)c(CNC(=O)c3ccc(NC(=O)CCCCCCCN(C)CCO)cc3)cnc21 [Example 26, Formate salt of N-{[1-ethyl-4-(tetrahydro-2H-pyran-4-ylamino)-1H-pyrazolo[3,4-b]pyridin-5-yl]methyl}-4-({8-[(2-hydroxyethyl)(methyl)amino]octanoyl}amino)benzamide] | ~0.251
CCc1nc2c(cnn2CC)c(NC2CCOCC2)c1CNC(=O)c1ccc(NC(=O)CCCCCCCN(C)CCO)cc1 [Example 1B, N-{[1,6-diethyl-4-(tetrahydro-2H-pyran-4-ylamino)-1H-pyrazolo[3,4-b]pyridin-5-yl]methyl}-4-({8-[(2-hydroxyethyl)(methyl)amino]octanoyl}amino)benzamide] | ~0.0631

Further lines, results first:

IC50 [nM] | SMILES
~0.0398 | CCc1nc2c(cnn2CC)c(NC2CCOCC2)c1CNC(=O)c1ccc(CCCCOCCCCN(C)CCO)cc1 [Example 19, formate salt of N-{[1,6-diethyl-4-(tetrahydro-2H-pyran-4-ylamino)-1H-pyrazolo[3,4-b]pyridin-5-yl]methyl}-4-[4-({4-[(2-hydroxyethyl)(methyl)amino]butyl}oxy)butyl]benzamide]
~0.0501 | CCc1nc2c(cnn2CC)c(NC2CCOCC2)c1CNC(=O)c1ccc(NC(=O)CCCCCCCN(C)CCO)cc1 [Example 1A1, N-{[1,6-Diethyl-4-(tetrahydro-2H-pyran-4-ylamino)-1H-pyrazolo[3,4-b]pyridin-5-yl]methyl}-4-({8-[(2-hydroxyethyl)(methyl)amino]octanoyl}amino)benzamide dihydrochloride]
~0.1 | CCc1nc2c(cnn2CC)c(NC2CCN(C(N)=O)CC2)c1CNC(=O)c1ccc(CCCCOCCCCN2CCOCC2)cc1 [Example 23A, 4-({1,6-diethyl-5-[({[4-(4-{[4-(4-morpholinyl)butyl]oxy}butyl)phenyl]carbonyl}amino)methyl]-1H-pyrazolo[3,4-b]pyridin-4-yl}amino)-1-piperidinecarboxamide]

Same assay, conditions: one reading or average of n readings

SMILES | PDE4B pIC50 (generally in FP assay) (±about 0.5)
CCc1nc2c(cnn2CC)c(NC2CCN(C(N)=O)CC2)c1CNC(=O)c1ccc(NC(=O)CCCCCCCN(C)CCO)cc1.O=C(O)C(F)(F)F [Example 9, 4-({1,6-diethyl-5-[({[4-({8-[(2-hydroxyethyl)(methyl)amino]octanoyl}amino)phenyl]carbonyl}amino)methyl]-1H-pyrazolo[3,4-b]pyridin-4-yl}amino)-1-piperidinecarboxamide trifluoroacetate (salt)] | about 10.3 (n = 1)
